Laboratory results published in PubChem BioAssay AID248 (DTP/NCI, 2004).
Inconclusive results and toxic doses are left out. Rule as the data show it: active = T/C of 150% or more; inactive = T/C below 125%.

Tested on: L1210 leukemia ip in BDF1 mice, survival T/C
Experiment: NCI In Vivo Anticancer Drug Screen. Data for tumor model L1210 Leukemia (intraperitoneal) in B6D2F1 (BDF1) mice
Conditions: endpoint: mean survival time, higher = longer survival
Summary of the method: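 Antitumor effect is assessed in tumor-bearing animals. Survival in the compound arm is compared with a vehicle-dosed control arm and expressed as their quotient.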

[1] = dose: 100.0 mg/kg/injection, schedule: Q01DX009 (ip), vehicle: Klucel (hydroxypropylcellulose) (HPC)
[2] = dose: 100.0 mg/kg/injection, schedule: Q04DX003 (ip), vehicle: Klucel (hydroxypropylcellulose) (HPC)
[3] = dose: 200.0 mg/kg/injection, schedule: Q01DX009 (ip), vehicle: Klucel (hydroxypropylcellulose) (HPC)
[4] = dose: 200.0 mg/kg/injection, schedule: Q04DX003 (ip), vehicle: Klucel (hydroxypropylcellulose) (HPC)
[5] = dose: 400.0 mg/kg/injection, schedule: Q04DX003 (ip), vehicle: Klucel (hydroxypropylcellulose) (HPC)
[6] = dose: 100.0 mg/kg/injection, schedule: Q04DX003 (ip), vehicle: saline
[7] = dose: 200.0 mg/kg/injection, schedule: Q04DX003 (ip), vehicle: saline
[8] = dose: 400.0 mg/kg/injection, schedule: Q04DX003 (ip), vehicle: saline
[9] = dose: 400.0 mg/kg/injection, schedule: Q01DX009 (ip), vehicle: Klucel (hydroxypropylcellulose) (HPC)

Measured: T/C

CN(NC(=O)OCc1ccccc1)C(=O)OCc1ccccc1
inactive: dose: 12.5 mg/kg/injection, schedule: Q01DX009 (ip), vehicle: Klucel (hydroxypropylcellulose) (HPC) 98 % of control | dose: 12.5 mg/kg/injection, schedule: Q04DX003 (ip), vehicle: Klucel (hydroxypropylcellulose) (HPC) 93 % of control | dose: 25.0 mg/kg/injection, schedule: Q01DX009 (ip), vehicle: Klucel (hydroxypropylcellulose) (HPC) 93 % of control | dose: 25.0 mg/kg/injection, schedule: Q04DX003 (ip), vehicle: Klucel (hydroxypropylcellulose) (HPC) 103 % of control | dose: 50.0 mg/kg/injection, schedule: Q01DX009 (ip), vehicle: Klucel (hydroxypropylcellulose) (HPC) 108 % of control | dose: 50.0 mg/kg/injection, schedule: Q04DX003 (ip), vehicle: Klucel (hydroxypropylcellulose) (HPC) 112 % of control | [1] 90 % of control | [2] 89 % of control | [3] 90 % of control | [4] 106 % of control | [5] 110 % of control

CCCCCCCCCCCCCCCCN(C(C)C)S(=O)(=O)c1ccc(Cl)c([N+](=O)[O-])c1
inactive: dose: 100.0 mg/kg/injection, schedule: Q01DX009 (ip), vehicle: saline sonified 106 % of control | [2] 91 % of control | dose: 200.0 mg/kg/injection, schedule: Q01DX009 (ip), vehicle: saline sonified 96 % of control | [4] 94 % of control | dose: 400.0 mg/kg/injection, schedule: Q01DX009 (ip), vehicle: saline sonified 89 % of control | [5] 93 % of control

COc1cccc(C2CCCCC2OS(=O)(=O)c2ccc(C)cc2)c1 (stereo not drawn)
inactive: dose: 100.0 mg/kg/injection, schedule: Q01DX001 (ip), vehicle: steriod suspending solution 106 % of control | dose: 200.0 mg/kg/injection, schedule: Q01DX001 (ip), vehicle: steriod suspending solution 101 % of control | dose: 400.0 mg/kg/injection, schedule: Q01DX001 (ip), vehicle: steriod suspending solution 91 % of control

O=C1c2ccccc2C(=O)C2CC(c3ccccc3)=C(c3ccccc3)CC12 (stereo not drawn)
inactive: dose: 100.0 mg/kg/injection, schedule: Q04DX002 (ip), vehicle: Klucel (hydroxypropylcellulose) (HPC) 96 % of control | dose: 200.0 mg/kg/injection, schedule: Q04DX002 (ip), vehicle: Klucel (hydroxypropylcellulose) (HPC) 96 % of control | dose: 400.0 mg/kg/injection, schedule: Q04DX002 (ip), vehicle: Klucel (hydroxypropylcellulose) (HPC) 100 % of control

N=C(N)SCC(CSC(=N)N)c1cnnc2ccccc12 (stereo not drawn)
inactive: dose: 100.0 mg/kg/injection, schedule: Q01DX001 (ip), vehicle: saline 102 % of control

CCCCCCOC(=O)CCCc1ccc(N(CCCl)CCCl)cc1
inactive: dose: 100.0 mg/kg/injection, schedule: Q04DX002 (ip), vehicle: saline 114 % of control | dose: 200.0 mg/kg/injection, schedule: Q04DX002 (ip), vehicle: saline 111 % of control | dose: 400.0 mg/kg/injection, schedule: Q04DX002 (ip), vehicle: saline 124 % of control

O=C1NC(=O)C([N+](=O)[O-])=C(O)C1=O
inactive: [6] 96 % of control | [7] 101 % of control

Nc1ccc2nc[nH]c2c1
inactive: dose: 100.0 mg/kg/injection, schedule: Q01DX009 (ip), vehicle: saline 98 % of control | [6] 101 % of control | dose: 200.0 mg/kg/injection, schedule: Q01DX009 (ip), vehicle: saline 95 % of control | [7] 104 % of control | dose: 400.0 mg/kg/injection, schedule: Q01DX009 (ip), vehicle: saline 87 % of control | [8] 102 % of control

O=C(CC(O)(C(F)(F)F)C(F)(F)F)c1ccccc1[N+](=O)[O-]
inactive: dose: 12.5 mg/kg/injection, schedule: Q01DX009 (ip), vehicle: DMSO 94 % of control | dose: 12.5 mg/kg/injection, schedule: Q04DX003 (ip), vehicle: DMSO 97 % of control | dose: 25.0 mg/kg/injection, schedule: Q01DX009 (ip), vehicle: DMSO 86 % of control | dose: 25.0 mg/kg/injection, schedule: Q04DX003 (ip), vehicle: DMSO 95 % of control | dose: 50.0 mg/kg/injection, schedule: Q04DX003 (ip), vehicle: DMSO 110 % of control | dose: 100.0 mg/kg/injection, schedule: Q04DX003 (ip), vehicle: DMSO 102 % of control

Cc1ccc(Cl)cc1NC(=O)COc1ccc(Cl)cc1
inactive: [1] 88 % of control | [2] 98 % of control | [3] 94 % of control | [4] 88 % of control | [9] 91 % of control | [5] 103 % of control

O=C1C=CC(=O)N1c1ccc([N+](=O)[O-])cc1
inactive: dose: 0.78 mg/kg/injection, schedule: Q04DX003 (ip), vehicle: Klucel (hydroxypropylcellulose) (HPC) 107 % of control | dose: 1.56 mg/kg/injection, schedule: Q01DX009 (ip), vehicle: Klucel (hydroxypropylcellulose) (HPC) 97 % of control | dose: 1.56 mg/kg/injection, schedule: Q04DX003 (ip), vehicle: Klucel (hydroxypropylcellulose) (HPC) 93 % of control | dose: 3.12 mg/kg/injection, schedule: Q01DX009 (ip), vehicle: Klucel (hydroxypropylcellulose) (HPC) 92 % of control | dose: 3.12 mg/kg/injection, schedule: Q04DX003 (ip), vehicle: Klucel (hydroxypropylcellulose) (HPC) 91 % of control | dose: 6.25 mg/kg/injection, schedule: Q01DX009 (ip), vehicle: Klucel (hydroxypropylcellulose) (HPC) 92 % of control | dose: 6.25 mg/kg/injection, schedule: Q04DX003 (ip), vehicle: Klucel (hydroxypropylcellulose) (HPC) 92 % of control | dose: 9.2 mg/kg/injection, schedule: Q01DX009 (ip), vehicle: Klucel (hydroxypropylcellulose) (HPC) 92 % of control | dose: 14.0 mg/kg/injection, schedule: Q01DX009 (ip), vehicle: Klucel (hydroxypropylcellulose) (HPC) 90 % of control | dose: 21.0 mg/kg/injection, schedule: Q01DX009 (ip), vehicle: Klucel (hydroxypropylcellulose) (HPC) 95 % of control

OCC1(CO)CCC1(CO)CO
inactive: dose: 75.0 mg/kg/injection, schedule: Q01DX001 (ip), vehicle: saline 106 % of control | dose: 75.0 mg/kg/injection, schedule: Q01DX009 (ip), vehicle: saline 105 % of control | dose: 150.0 mg/kg/injection, schedule: Q01DX001 (ip), vehicle: saline 102 % of control | dose: 150.0 mg/kg/injection, schedule: Q01DX009 (ip), vehicle: saline 105 % of control | dose: 300.0 mg/kg/injection, schedule: Q01DX001 (ip), vehicle: saline 98 % of control | dose: 300.0 mg/kg/injection, schedule: Q01DX009 (ip), vehicle: saline 97 % of control

ClC(=Nc1ccccc1)c1cc(Cl)ccn1
inactive: dose: 100.0 mg/kg/injection, schedule: Q01DX001 (ip), vehicle: carboxymethylcellulose (CMC) 92 % of control | dose: 200.0 mg/kg/injection, schedule: Q01DX001 (ip), vehicle: carboxymethylcellulose (CMC) 94 % of control | dose: 400.0 mg/kg/injection, schedule: Q01DX001 (ip), vehicle: carboxymethylcellulose (CMC) 100 % of control

O=C1c2ccccc2C(=O)c2cc(-c3ccccc3)ccc21
inactive: dose: 100.0 mg/kg/injection, schedule: Q01DX001 (ip), vehicle: saline with Tween-80 90 % of control | dose: 200.0 mg/kg/injection, schedule: Q01DX001 (ip), vehicle: saline with Tween-80 93 % of control | dose: 400.0 mg/kg/injection, schedule: Q01DX001 (ip), vehicle: saline with Tween-80 87 % of control

CC(=O)OCCN1CCC(n2ccc(=O)[nH]c2=O)C1=O (stereo not drawn)
inactive: [6] 104 % of control | [7] 104 % of control | [8] 106 % of control

CCOc1ccc(NC(=O)CC(C)=O)cc1
inactive: dose: 25.0 mg/kg/injection, schedule: Q04DX003 (ip), vehicle: other 95 % of control | dose: 50.0 mg/kg/injection, schedule: Q04DX003 (ip), vehicle: other 100 % of control | dose: 100.0 mg/kg/injection, schedule: Q04DX003 (ip), vehicle: other 96 % of control

S=c1sc2ccccc2n1CN1CCCCC1
inactive: [1] 95 % of control | [2] 92 % of control | [3] 103 % of control | [4] 97 % of control | [9] 105 % of control | [5] 96 % of control

Cc1cc2oc(/C=N/Nc3ccc([N+](=O)[O-])cc3[N+](=O)[O-])c(C)c2cc1C
inactive: [1] 94 % of control | [3] 94 % of control | [9] 89 % of control

CCOC(=O)C(C)N (stereo not drawn)
inactive: [1] 93 % of control | [2] 105 % of control | [3] 93 % of control | [4] 102 % of control | [9] 97 % of control | [5] 97 % of control

COc1cc2c(cc1OC)NCc1cccn1C2
inactive: dose: 25.0 mg/kg/injection, schedule: Q04DX002 (ip), vehicle: saline with Tween-80 101 % of control | dose: 50.0 mg/kg/injection, schedule: Q04DX002 (ip), vehicle: saline with Tween-80 97 % of control | dose: 100.0 mg/kg/injection, schedule: Q04DX002 (ip), vehicle: saline with Tween-80 105 % of control
